# Literature values in patent publication US7488755B2, “Derivatives of glycinergic R(+)-2-amino-3-hydroxypropanoic acid” (Prestwick Pharmaceuticals, Inc., priority 2002, dated 2009).
# What was measured:
# schizophrenia patients = details: 2 g/day, double-blind clinical trial, also in patients with little response to conventional antipsychotics
# schizophrenic patients = details: very high oral doses (>30 g/day)
Structure (SMILES),efficacy in the treatment of schizophrenia (schizophrenia patients),effect on negative symptoms in schizophrenic patients (schizophrenic patients)
N[C@H](CO)C(=O)O [D-serine],effective in the treatment of schizophrenia,
NCC(=O)O [glycine],,improvement in the negative symptoms
